Laboratory results published in article PMC3195361 (Bioorganic & medicinal chemistry, 2011).

How the values were obtained:
H2009 cells [1] = experiment: Cell viability assay; assay type: cell-based, Human; conditions: for IC50: 10 min exposure followed by 120 h recovery in media
H2009 xenograft = assay type: in vivo, NOD/SCID mice; conditions: 5 mg/kg based on paclitaxel; for tumor growth rate compared to saline: i.v. tail vein, days 18, 21, 24, 27, 30
H460 cells = experiment: Cell viability assay; assay type: cell-based, Human; conditions: H460.1 column; 10 min exposure followed by 120 h recovery in media
[2] = 5 mg/kg based on paclitaxel, 5 injections; data not shown
H2009 cells [3] = experiment: Cell cycle analysis by PI DNA staining and flow cytometry; assay type: cell-based, Human; conditions: for effect on cell cycle: H2009 cells
integrin αvβ6 = conditions: read-out: half-maximal binding affinity; tetramerized H2009.1 peptide; cited from earlier work
[4] = Solubility of the peptide-paclitaxel conjugates; assay type: physicochemical; conditions: cold water; white powder
[5] = PBS pH 7.4, 37° C, after 96 hours
[6] = test system: H2009 cells (αvβ6-positive); assay type: binding, Human; conditions: fluorescein-labeled conjugate, 1 hour, flow cytometry
[7] = 1 μM paclitaxel column, time not printed in table (24 h elsewhere in the source)

CC(=O)O[C@H]1C(=O)[C@@]2(C)[C@H]([C@H](OC(=O)c3ccccc3)[C@]3(O)C[C@H](OC(=O)[C@H](O)[C@@H](NC(=O)c4ccccc4)c4ccccc4)C(C)=C1C3(C)C)[C@]1(OC(C)=O)CO[C@@H]1C[C@@H]2O [Paclitaxel, reference compound]
effect on cell viability within the first 48 h (H2009 cells [1]; 1 μM for 10 min, then recovery): rapid reduction of cell viability | IC50 (H2009 cells [1]): 14.8 ± 3.3 nM | tumor growth rate compared to saline (H2009 xenograft): slowed | IC50 (H460 cells): 23.6 ± 7.4 nM | animal weights [2]: remained steady | G2/M (H2009 cells [3]; [7]): 73.5 | Polyploid (H2009 cells [3]; [7]): 14 | S (H2009 cells [3]; [7]): 4.1 | effect on cell cycle (H2009 cells [3]; 1 μM, at 24 h): G2/M cell cycle arrest was observed

CC(C)C[C@H](NC(=O)[C@H](CCC(N)=O)NC(=O)[C@H](CCCNC(=N)N)NC(=O)[C@H](CC(C)C)NC(=O)[C@@H](NC(=O)[C@H](C)NC(=O)[C@H](CC(C)C)NC(=O)[C@H](CC(=O)O)NC(=O)CNC(=O)[C@@H](N)CCCNC(=N)N)[C@@H](C)O)C(=O)NCCOCCOCCOCCOCCOCCOCCOCCOCCOCCOCCOCCOCCC(=O)N[C@@H](CSC1CC(=O)N(CCC(=O)NCCCC[C@H](NC(=O)CCN2C(=O)CC(SC[C@H](NC(=O)CCOCCOCCOCCOCCOCCOCCOCCOCCOCCOCCOCCOCCNC(=O)[C@H](CC(C)C)NC(=O)[C@H](CCC(N)=O)NC(=O)[C@H](CCCNC(=N)N)NC(=O)[C@H](CC(C)C)NC(=O)[C@@H](NC(=O)[C@H](C)NC(=O)[C@H](CC(C)C)NC(=O)[C@H](CC(=O)O)NC(=O)CNC(=O)[C@@H](N)CCCNC(=N)N)[C@@H](C)O)C(N)=O)C2=O)C(=O)NCCCC[C@H](NC(=O)[C@H](CCCCNC(=O)CCN2C(=O)CC(SC[C@H](NC(=O)CCOCCOCCOCCOCCOCCOCCOCCOCCOCCOCCOCCOCCNC(=O)[C@H](CC(C)C)NC(=O)[C@H](CCC(N)=O)NC(=O)[C@H](CCCNC(=N)N)NC(=O)[C@H](CC(C)C)NC(=O)[C@@H](NC(=O)[C@H](C)NC(=O)[C@H](CC(C)C)NC(=O)[C@H](CC(=O)O)NC(=O)CNC(=O)[C@@H](N)CCCNC(=N)N)[C@@H](C)O)C(N)=O)C2=O)NC(=O)CCN2C(=O)CC(SC[C@H](NC(=O)CCOCCOCCOCCOCCOCCOCCOCCOCCOCCOCCOCCOCCNC(=O)[C@H](CC(C)C)NC(=O)[C@H](CCC(N)=O)NC(=O)[C@H](CCCNC(=N)N)NC(=O)[C@H](CC(C)C)NC(=O)[C@@H](NC(=O)[C@H](C)NC(=O)[C@H](CC(C)C)NC(=O)[C@H](CC(=O)O)NC(=O)CNC(=O)[C@@H](N)CCCNC(=N)N)[C@@H](C)O)C(N)=O)C2=O)C(=O)N[C@@H](CS)C(=O)NCCC(=O)O)C1=O)C(N)=O (stereo partly drawn) [compound 2]
EC50 (integrin αvβ6): 0.05 nM

CC(=O)O[C@H]1C(=O)[C@@]2(C)[C@H]([C@H](OC(=O)c3ccccc3)[C@]3(O)C[C@H](OC(=O)[C@H](OC(=O)CCN4C(=O)CC(SC[C@H](NC(=O)[C@H](CCCCNC(=O)[C@H](CCCCNC(=O)CCN5C(=O)CC(SC[C@H](NC(=O)CCOCCOCCOCCOCCOCCOCCOCCOCCOCCOCCOCCOCCNC(=O)[C@H](CC(C)C)NC(=O)[C@H](CCC(N)=O)NC(=O)[C@H](CCCNC(=N)N)NC(=O)[C@H](CC(C)C)NC(=O)[C@@H](NC(=O)[C@H](C)NC(=O)[C@H](CC(C)C)NC(=O)[C@H](CC(=O)O)NC(=O)CNC(=O)[C@@H](N)CCCNC(=N)N)[C@@H](C)O)C(N)=O)C5=O)NC(=O)CCN5C(=O)CC(SC[C@H](NC(=O)CCOCCOCCOCCOCCOCCOCCOCCOCCOCCOCCOCCOCCNC(=O)[C@H](CC(C)C)NC(=O)[C@H](CCC(N)=O)NC(=O)[C@H](CCCNC(=N)N)NC(=O)[C@H](CC(C)C)NC(=O)[C@@H](NC(=O)[C@H](C)NC(=O)[C@H](CC(C)C)NC(=O)[C@H](CC(=O)O)NC(=O)CNC(=O)[C@@H](N)CCCNC(=N)N)[C@@H](C)O)C(N)=O)C5=O)NC(=O)[C@H](CCCCNC(=O)CCN5C(=O)CC(SC[C@H](NC(=O)CCOCCOCCOCCOCCOCCOCCOCCOCCOCCOCCOCCOCCNC(=O)[C@H](CC(C)C)NC(=O)[C@H](CCC(N)=O)NC(=O)[C@H](CCCNC(=N)N)NC(=O)[C@H](CC(C)C)NC(=O)[C@@H](NC(=O)[C@H](C)NC(=O)[C@H](CC(C)C)NC(=O)[C@H](CC(=O)O)NC(=O)CNC(=O)[C@@H](N)CCCNC(=N)N)[C@@H](C)O)C(N)=O)C5=O)NC(=O)CCN5C(=O)CC(SC[C@H](NC(=O)CCOCCOCCOCCOCCOCCOCCOCCOCCOCCOCCOCCOCCNC(=O)[C@H](CC(C)C)NC(=O)[C@H](CCC(N)=O)NC(=O)[C@H](CCCNC(=N)N)NC(=O)[C@H](CC(C)C)NC(=O)[C@@H](NC(=O)[C@H](C)NC(=O)[C@H](CC(C)C)NC(=O)[C@H](CC(=O)O)NC(=O)CNC(=O)[C@@H](N)CCCNC(=N)N)[C@@H](C)O)C(N)=O)C5=O)C(=O)NCCC(=O)O)C4=O)[C@@H](NC(=O)c4ccccc4)c4ccccc4)C(C)=C1C3(C)C)[C@]1(OC(C)=O)CO[C@@H]1C[C@@H]2O (stereo partly drawn) [compound 3]
time at which reduction of cell viability begins (H2009 cells [1]; 1 μM for 10 min, then recovery): 72 h | delay of effect on tumor growth relative to free drug (H2009 xenograft): 7 days | tumor growth rate compared to saline (H2009 xenograft): reduced the rate of tumor growth compared to saline | solubility [4]: soluble in cold water | IC50 (H460 cells): Not Reached ^b | increase of paclitaxel release with esterase versus PBS (porcine esterase; esterase in PBS vs PBS): 7 fold | paclitaxel released (porcine esterase; porcine esterase (18u/mL) in PBS, 37° C, by 48 h): 34.1% | G1 (H2009 cells [3]; 1 μM, 24 h): 44.9 | G2/M (H2009 cells [3]; 1 μM, 24 h): 39.0 | Polyploid (H2009 cells [3]; 1 μM, 24 h): 8.0 | S (H2009 cells [3]; 1 μM, 24 h): 8.1 | G1 (H2009 cells [3]; 1 μM, 48 h): 11.4 | G2/M (H2009 cells [3]; 1 μM, 48 h): 57.1 | Polyploid (H2009 cells [3]; 1 μM, 48 h): 26.9 | S (H2009 cells [3]; 1 μM, 48 h): 4.5 | increase in number of cells in G2/M (H2009 cells [3]; 1 μM, at 48 h): ~ 2 fold | increase in polyploid cells (H2009 cells [3]; 1 μM, at 48 h): 3 fold | G1 (H2009 cells [3]; 5 μM, 24 h): 35.8 | G2/M (H2009 cells [3]; 5 μM, 24 h): 45.8 | Polyploid (H2009 cells [3]; 5 μM, 24 h): 11.7 | S (H2009 cells [3]; 5 μM, 24 h): 6.7 | G1 (H2009 cells [3]; 5 μM, 48 h): 23.9 | G2/M (H2009 cells [3]; 5 μM, 48 h): 53.9 | Polyploid (H2009 cells [3]; 5 μM, 48 h): 23.6 | S (H2009 cells [3]; 5 μM, 48 h): 8.5 | effect on cell cycle (H2009 cells [3]; 1 μM, at 24 h): the cell cycle remains unperturbed | more G2/M arrest at increased conjugate concentration (H2009 cells [3]; increased concentration (5 μM in Table II), at 24 h): Approximately 50% | paclitaxel released [5]: minimal paclitaxel was released

CC(=O)O[C@H]1C(=O)[C@@]2(C)[C@H]([C@H](OC(=O)c3ccccc3)[C@]3(O)C[C@H](OC(=O)[C@H](OC(=O)CCN4C(=O)CC(SC[C@H](NC(=O)[C@H](CCCCNC(=O)[C@H](CCCCNC(=O)CCN5C(=O)CC(SC[C@H](NC(=O)CCOCCOCCOCCOCCOCCOCCOCCOCCOCCOCCOCCOCCNC(=O)[C@H](CCCNC(=N)N)NC(=O)[C@H](CC(C)C)NC(=O)[C@@H](NC(=O)CNC(=O)[C@H](CCC(N)=O)NC(=O)[C@H](CC(C)C)NC(=O)[C@H](CCCNC(=N)N)NC(=O)[C@H](CC(C)C)NC(=O)[C@H](C)NC(=O)[C@@H](N)CC(=O)O)[C@@H](C)O)C(N)=O)C5=O)NC(=O)CCN5C(=O)CC(SC[C@H](NC(=O)CCOCCOCCOCCOCCOCCOCCOCCOCCOCCOCCOCCOCCNC(=O)[C@H](CCCNC(=N)N)NC(=O)[C@H](CC(C)C)NC(=O)[C@@H](NC(=O)CNC(=O)[C@H](CCC(N)=O)NC(=O)[C@H](CC(C)C)NC(=O)[C@H](CCCNC(=N)N)NC(=O)[C@H](CC(C)C)NC(=O)[C@H](C)NC(=O)[C@@H](N)CC(=O)O)[C@@H](C)O)C(N)=O)C5=O)NC(=O)[C@H](CCCCNC(=O)CCN5C(=O)CC(SC[C@H](NC(=O)CCOCCOCCOCCOCCOCCOCCOCCOCCOCCOCCOCCOCCNC(=O)[C@H](CCCNC(=N)N)NC(=O)[C@H](CC(C)C)NC(=O)[C@@H](NC(=O)CNC(=O)[C@H](CCC(N)=O)NC(=O)[C@H](CC(C)C)NC(=O)[C@H](CCCNC(=N)N)NC(=O)[C@H](CC(C)C)NC(=O)[C@H](C)NC(=O)[C@@H](N)CC(=O)O)[C@@H](C)O)C(N)=O)C5=O)NC(=O)CCN5C(=O)CC(SC[C@H](NC(=O)CCOCCOCCOCCOCCOCCOCCOCCOCCOCCOCCOCCOCCNC(=O)[C@H](CCCNC(=N)N)NC(=O)[C@H](CC(C)C)NC(=O)[C@@H](NC(=O)CNC(=O)[C@H](CCC(N)=O)NC(=O)[C@H](CC(C)C)NC(=O)[C@H](CCCNC(=N)N)NC(=O)[C@H](CC(C)C)NC(=O)[C@H](C)NC(=O)[C@@H](N)CC(=O)O)[C@@H](C)O)C(N)=O)C5=O)C(=O)NCCC(=O)O)C4=O)[C@@H](NC(=O)c4ccccc4)c4ccccc4)C(C)=C1C3(C)C)[C@]1(OC(C)=O)CO[C@@H]1C[C@@H]2O (stereo partly drawn) [scrambled peptide-paclitaxel conjugate]
binding to H2009 cells [6]: no binding was observed | IC50 (H2009 cells [1]): Not Reached ^b | solubility [4]: soluble in cold water | IC50 (H460 cells): Not Reached ^b
